According to patent US20220347158A1, “Methods of Treating Conditions Related to the S1P1 Receptor” (Arena Pharmaceuticals, Inc., priority 2019, published 2022):
Read-outs that look alike come from different tables or passages of the source.

How the values were obtained:
lymphocyte = type: in vivo, human
Procedure: In another Phase 1 study, 30 adult subjects received 2 mg of Compound 1 qd (Days 1 to 7), then 3 mg of Compound 1 qd (Days 8 to 12), and finally 4 mg of Compound 1 qd (Days 13 to 14). […] After treatment with Compound 1, lymphocyte reductions of 46% and 65% for Day 8 and Day 15, respectively, were observed.

UC patients [1] = experiment: Open-label extension study after the Phase 2 UC study; type: in vivo, human; conditions: up to 46 weeks
Procedure: (§1) Compound 1, or a pharmaceutically acceptable salt, solvate, or hydrate thereof, is an orally administered, selective, synthetic sphingosine 1-phosphate (S1P) receptor 1, 4, 5 modulator. […] Its safety and tolerability have been evaluated in Phase 1 studies with healthy adult subjects at single doses up to 5 mg and repeated doses up to 4 mg once daily (“QD” or “qd”).

[2] = system: peripheral lymphocyte counts; experiment: Phase 1 studies taken together (safety, tolerability, lymphocyte counts); type: in vivo, human
Procedure: Compound 1, or a pharmaceutically acceptable salt, solvate, or hydrate thereof, is an orally administered, selective, synthetic sphingosine 1-phosphate (S1P) receptor 1, 4, 5 modulator. […] Its safety and tolerability have been evaluated in Phase 1 studies with healthy adult subjects at single doses up to 5 mg and repeated doses up to 4 mg once daily (“QD” or “qd”). […] In another Phase 1 study, 30 adult subjects received 2 mg of Compound 1 qd (Days 1 to 7), then 3 mg of Compound 1 qd (Days 8 to 12), and finally 4 mg of Compound 1 qd (Days 13 to 14). […] After treatment with Compound 1, lymphocyte reductions of 46% and 65% for Day 8 and Day 15, respectively, were observed.

[3] = system: peripheral blood lymphocytes; experiment: Phase 1, single ascending dose clinical trial in healthy subjects; type: in vivo, human
[4] = system: peripheral lymphocyte counts; experiment: Phase 1, multiple ascending dose clinical trial in healthy subjects; type: in vivo, human
Description: […] […] After treatment with Compound 1, lymphocyte reductions of 46% and 65% for Day 8 and Day 15, respectively, were observed.

UC patients [5] = experiment: Phase 2 dose-ranging study in UC patients; type: in vivo, human
Description: Further, while UC and CD have overlapping features, there are differences in pathophysiology, disease location, and extent of disease that may dictate different doses for the treatment of UC and CD. Described herein is the elucidation of safe and efficacious dosing of Compound 1 for the treatment of CD.
as §1

subjects with CD = conditions: Phase 2; cited from earlier work

Compound: O=C(O)C[C@H]1CCc2c1[nH]c1ccc(OCc3ccc(C4CCCC4)c(C(F)(F)F)c3)cc21 [Compound 1, (R)-2-(7-(4-cyclopentyl-3-(trifluoromethyl)benzyloxy) -1,2,3,4-tetrahydrocyclopenta[b]indol-3-yl)acetic acid]
- lymphocyte reductions (lymphocyte; Day 8 (after 2 mg qd Days 1 to 7)): 46%
- lymphocyte reductions (lymphocyte; Day 15 (after 2 mg Days 1 to 7, 3 mg Days 8 to 12, 4 mg Days 13 to 14)): 65%
- beneficial effects in open-label extension (UC patients [1]): Sustained beneficial effects
- reductions in peripheral lymphocyte counts ([2]; Phase 1 studies together, 2 mg and 3 mg): significant reductions
- tolerability and safety ([2]; Phase 1 studies together, doses up to 4 mg): well-tolerated with no significant safety findings
- safety and tolerability ([2]; adult subjects treated at various doses, Phase 1 single doses up to 5 mg, repeated doses up to 4 mg once daily): safe and well-tolerated
- decline in the absolute number of peripheral blood lymphocytes ([3]; single 3 mg and 5 mg doses): clear dose-responsive decline
- declines in peripheral blood lymphocytes ([3]; single doses up to 1 mg): only modest declines
- safety and tolerability ([4]; up to 21 days of dosing with 2 mg or 3 mg): safe and well-tolerated
- peripheral lymphocyte counts ([4]; up to 21 days of dosing, 2 mg and 3 mg): reduced peripheral lymphocyte counts
- endoscopic and symptomatic improvements versus placebo (UC patients [5]; UC patients, 2 mg QD for 12 weeks): clinically meaningful and statistically significant endoscopic and symptomatic improvements
- efficacy over placebo (UC patients [5]; subjects with UC, 2 mg): improved efficacy

Compound: CCCCCCCOc1ccc(CCC(N)(CO)CO)cc1C(F)(F)F [amiselimod]
- efficacy over placebo (subjects with CD): did not result in improved efficacy over placebo
